# Values of other authors as cited in patent US7666442B2 (Tracie Martyn International, LLC, priority 2004, dated 2010).
# Assays:
# [1] = using only natural ingredients (botanicals, antioxidants, coffe oil and microfine zinc oxide)
# [2] = orally at dosages above 500 mg/kg body weight in animal studies
smiles,measurement,setting,value
COc1ccc(C=CC(=O)OCCC(C)C)cc1 [isoamyl-p-methoxycinnamate],spf,[1],greater than 30
"NCCC(=O)N[C@@H](Cc1cnc[nH]1)C(=O)O [Carnosine, beta-alanyl-L-histidine]",Safety after oral administration,[2],safe
"Cc1ncc(CO)c(CN)c1O [Pyridoxamine, 4-aminomethyl-5-hydroxy-6-methyl-3-pyridinemethanol]",Water solubility,,water-soluble
